These results are taken from patent US20260308172A1, “TRICYCLIC COMPOUNDS FOR TREATMENT OF BACTERIAL INFECTIONS” (priority 2023, published 2026).

Some results are limits rather than exact numbers.

Data set [1] is described as follows: Human Microsome Stability Assay. It is filed as in vitro ADME. As to conditions: 1 μM compound, 0.5 mg/mL liver microsomal protein, 1 mM NADPH, pH 7.4, 37° C., 0-30 minutes; for CLint scaled at 1 µM: human, liver microsomes, read-out: Clearance of Human microsome. The protocol: The human microsomal stability assay is used for early assessment of metabolic stability of compounds of present invention in human liver microsomes. Human liver microsomes (Cat. NO.: 452117, Corning, USA) were pre-incubated with test compound for 10 minutes at 37° C. in 100 mM potassium phosphate buffer, pH 7.4. The reactions were initiated by adding NADPH regenerating system. The final incubation mixtures contained 1 μM compound, 0.5 mg/mL liver microsomal protein, 1 mM MgCl2 and 1 mM NADPH in 100 mM potassium phosphate buffer, pH 7.4. After incubation times of 0, 3, 6, 9, 15 and 30 minutes at 37° C., 300 μL of cold acetonitrile (including internal standard) was added to 100 μL incubation mixture to terminate the reaction. Following precipitation and centrifugation, the amount of compound remaining in the samples were determined by LC-MS/MS. Controls of no NADPH regenerating system at zero and 30 minutes were also prepared and analyzed.
A general note: Liver microsomes are vesicles of endoplasmic reticulum, rich in cytochrome P450 enzymes.

In the next data set the test system is LPS synthesis pathway. The settings on record: in words; Bioorganic Chemistry 102 (2020) 104055; cited from earlier work.
In data set [2] the test system is efflux-deficient E. coli strains. The settings on record: in words; Bioorganic Chemistry 102 (2020) 104055; cited from earlier work.
For data set [3], the system named is Escherichia coli ATCC 25922. The experiment in a line: Minimal Inhibitory Concentration (MIC) assay, Escherichia coli ATCC 25922. Format: cell-based. The settings on record: ATCC25922, 20 h, read-out: MIC Escherichia coli ATCC25922. The essentials:
(§1)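 Broth microdilution in cation-adjusted Mueller Hinton broth with 2-fold serial compound dilutions, inoculum 5×10^5 CFU/mL. Plates incubated 20 h at 35 °C in ambient air. MIC (μg/mL) is the lowest concentration preventing visible growth; K. pneumoniae 43816 is a rifampin-resistant mutant.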

Data set [4] relates to Klebsiella pneumonia ATCC 43816. Nature of the data set: Minimal Inhibitory Concentration (MIC) assay, Klebsiella pneumonia ATCC 43816. As to conditions: Klebsiella pneumoniae, ATCC43816, 20 h, read-out: MIC Klebsiella pneumoniae ATCC43816. It is filed as cell-based. The essentials: as §1

A word on the MIC: it is the lowest concentration found to suppress growth. `CC(=O)N1CCc2cc(S(=O)(=O)N3CCN(c4cc(Cl)cc(C(F)(F)F)c4)CC3)ccc21` [Compound F-1, reference compound]: the CLint scaled at 1 µM in data set [1] is 14 mL/min/kg. The “LPS synthesis pathway inhibition activity” value in the data set on LPS synthesis pathway is recorded as “having LPS synthesis pathway inhibition activity”. The “antibiotic activity against efflux-deficient E. coli strains” value in data set [2] is listed as “displaying antibiotic activity against efflux-deficient E. coli strains”. Moreover, the minimum inhibitory concentration (MIC) in data set [3] and in data set [4] was over 24 µg/mL in each case.
Regarding `C[N@@+]1(CC(N)=O)CCC[C@H]1C(=O)N[C@H]1CC[C@H](C(F)(F)c2cc(Cl)nc(N3CCN(S(=O)(=O)c4ccc5c(c4)OC[C@@H]4[C@H](CN)OC(=O)N54)CC3)c2)CC1` [Example 060, (1S,2S)—N-[4-[[2-[4-[[(3S,3aR)-3-(aminomethyl)-1-oxo-3a,4-dihydro-3H-oxazolo[4,3-c][1,4]benzoxazin-7-yl]sulfonyl]piperazin-1-yl]-6-chloro-4-pyridyl]-difluoro-methyl]cyclohexyl]-1-(2-amino-2-oxo-ethyl)-1-methyl-pyrrolidin-1-ium-2-carboxamide; chloride], the “Clearance of Human microsome” value in data set [1] was 6.2 mL/min/kg. In addition, the minimal inhibitory concentration (MIC) in data set [3] and in data set [4] was 0.51 µg/mL in each case.
Turning to `C[N@+]1(CC(N)=O)CCC[C@H]1C(=O)N[C@H]1CC[C@H](C(F)(F)c2cc(Cl)nc(N3CCN(S(=O)(=O)c4ccc5c(c4)OC[C@@H]4[C@H](CN)OC(=O)N54)CC3)c2)CC1` [Example 061, (1R,2S)—N-[4-[[2-[4-[[(3S,3aR)-3-(aminomethyl)-1-oxo-3a,4-dihydro-3H-oxazolo[4,3-c][1,4]benzoxazin-7-yl]sulfonyl]piperazin-1-yl]-6-chloro-4-pyridyl]-difluoro-methyl]cyclohexyl]-1-(2-amino-2-oxo-ethyl)-1-methyl-pyrrolidin-1-ium-2-carboxamide;chloride], the “Clearance of Human microsome” value in data set [1] is on record as 6.2 mL/min/kg. Also, the MIC in data set [3] was 0.68 µg/mL; in data set [4], 0.34 µg/mL.
As for `NC(=O)C[N+]1(CCNC(=O)[C@H]2CC[C@H](C(F)(F)c3cc(Cl)nc(N4CCN(S(=O)(=O)c5ccc6c(c5)OC[C@@H]5[C@H](CO)OC(=O)N65)CC4)c3)CC2)CCCC1.[Cl-]` [Example 063, 4-[[2-[4-[[(3R,3aR)-3-(hydroxymethyl)-1-oxo-3a,4-dihydro-3H-oxazolo[4,3-c][1,4]benzoxazin-7-yl]sulfonyl]piperazin-1-yl]-6-chloro-4-pyridyl]-difluoro-methyl]-N-[2-[1-(2-amino-2-oxo-ethyl)pyrrolidin-1-ium-1-yl]ethyl]cyclohexanecarboxamide; chloride], in data set [1], the CLint scaled at 1 µM was 10.2 mL/min/kg. For the same compound, the figures for the minimal inhibitory concentration (MIC) in data set [3] and in data set [4] were 2 µg/mL and 2.01 µg/mL, respectively.
